Test results published in the supplement of paper PMC10307832.

Columns and labels:
Assay in all cases: relative viability (nuclei count vs DMSO), 5 days (fraction); higher = more cells survive
[1] = compound: CN1CCC(CNc2ccc3ncc(-c4cccc(OC(F)(F)F)c4)n3n2)CC1 [SGI-1776] + CC1(C)CCC(c2ccc(Cl)cc2)=C(CN2CCN(c3ccc(C(=O)NS(=O)(=O)c4ccc(N[C@H](CCN5CCOCC5)CSc5ccccc5)c(S(=O)(=O)C(F)(F)F)c4)cc3)CC2)C1 [Navitoclax] (partner 0.5 µM)
In short: (§1)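 Lung cancer cell lines were pin-tool dosed in 1536-well plates on the day after seeding, with either a lone drug or a fixed anchor-drug dose plus five library-drug doses (not always all listed) in √10 steps. Nuclei were counted on 4× images after 5 days. Relative viability is the ratio of treated-well to vehicle-well nuclei counts, with each value a median of duplicate plates.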

[2] = compound: C1COCCN1C2=NC(=NC3=C2OC4=C3C=CC=N4)C5=CC(=CC=C5)NC(=O)C6=CN=C(C=C6)N + CC1(C)CCC(c2ccc(Cl)cc2)=C(CN2CCN(c3ccc(C(=O)NS(=O)(=O)c4ccc(N[C@H](CCN5CCOCC5)CSc5ccccc5)c(S(=O)(=O)C(F)(F)F)c4)cc3)CC2)C1 [Navitoclax] (partner 0.5 µM)
In short: as §1

[3] = compound: Nc1ccccc1NC(=O)c1ccc(CNC(=O)OCc2cccnc2)cc1 [Entinostat] + Nc1nc2[nH]cc(CCc3ccc(C(=O)N[C@@H](CCC(=O)O)C(=O)O)cc3)c2c(=O)[nH]1 [Pemetrexed] (partner 0.2 µM)
In short: as §1

[4] = compound: CN1CCC(CNc2ccc3ncc(-c4cccc(OC(F)(F)F)c4)n3n2)CC1 [SGI-1776] + CC(=O)c1c(C)c2cnc(Nc3ccc(N4CCNCC4)cn3)nc2n(C2CCCC2)c1=O [Palbociclib] (partner 0.5 µM)
In short: as §1

Cell Line	relative viability ([1]; first compound 0.08 µM)	relative viability ([1]; first compound 0.8 µM)	relative viability ([1]; first compound 2.53 µM)	relative viability ([1]; first compound 8 µM)	relative viability ([2]; first compound 0.02 µM)	relative viability ([2]; first compound 0.06325 µM)	relative viability ([2]; first compound 0.2 µM)	relative viability ([2]; first compound 0.6325 µM)	relative viability ([2]; first compound 2 µM)	relative viability ([3]; first compound 0.02 µM)	relative viability ([3]; first compound 0.06325 µM)	relative viability ([3]; first compound 0.2 µM)	relative viability ([3]; first compound 0.6325 µM)	relative viability ([3]; first compound 2 µM)	relative viability ([4]; first compound 0.08 µM)	relative viability ([4]; first compound 0.8 µM)	relative viability ([4]; first compound 2.53 µM)	relative viability ([4]; first compound 8 µM)
NCI-H1437	1.13	1.07	1.11	1.04	1.15	1.16	1.04	1.08	0.563	0.318	0.282	0.231	0.178	0.148	0.311	0.315	0.257	0.261
PC-14	0.97	1.05	1.04	0.93	1.09	1.06	1.02	1.01	0.465	0.137	0.163	0.139	0.198	0.146	0.573	0.448	0.436	0.0558
LK-2	0.98	0.828	0.772	0.549	0.953	0.845	0.869	0.714	0.54	0.365	0.278	0.282	0.276	0.132	0.513	0.735	0.647	0.534
NCI-H1651	1.19	1.04	0.9	0.825	1.33	1.18	0.984	1.15	0.614	0.715	0.777	0.655	0.639	0.435	0.504	0.497	0.522	0.439
LC-2-ad	0.463	0.434	0.464	0.257	0.461	0.529	0.418	0.611	0.379	0.286	0.276	0.28	0.302	0.33	0.495	0.535	0.457	0.467
NCI-H1734	0.829	0.851	0.884	0.759	0.838	0.99	0.87	0.821	0.441	0.436	0.419	0.492	0.414	0.382	0.387	0.339	0.345	0.283
NCI-H441	0.775	0.732	0.629	0.374	0.546	0.566	0.571	0.665	0.297	0.287	0.29	0.255	0.227	0.166	0.204	0.219	0.235	0.164
NCI-H23	0.988	0.728	0.837	0.729	0.788	0.968	0.733	0.72	0.533	0.76	0.892	0.728	0.685	0.319	0.507	0.574	0.421	0.482
NCI-H1395	1.08	1.41	1.13	0.836	0.919	1.07	1.03	1.25	1.19	0.884	1.05	0.911	0.76	0.719	0.615	0.588	0.611	0.457
